Reference: US20240066057A1, “METHOD FOR TREATING PAIN USING VANADIUM COMPOUNDS” (HUNAN FANGSHENGTAI MEDICAL TECHNOLOGY CO., LTD, priority 2020, published 2024)
“Also recorded” adds a separate entry of the source.

Legend:
[1] = test system: Kunming mice with CFA-induced inflammation; test: Von Frey test (50% paw withdrawal threshold) in CFA-induced inflammatory pain mouse model; format: in vivo
Procedure: 10 μL of complete Freund's adjuvant (CFA) was injected into the left hind foot of mice (♂ Kunming mice, 22 g to 40 g) to induce inflammation. 24 hours after the injection, a Von Frey test was performed to determine a pain threshold. That is, under the guidance of Dixon's Up-Down method, Von Frey fibers were used to induce the mechanical paw withdrawal of the mice, and data were collected and calculated to obtain their 50% paw withdrawal thresholds (paw withdrawal threshold or PWT for short, i.e. pain threshold). Mice were then divided into different groups, including a normal saline group, a positive control group, and a drug group, which were intraperitoneally injected with normal saline, an aspirin (acetylsalicylic acid, or ASA) solution and a solution of compound for testing respectively. A Von Frey test was then performed to monitor changes in pain threshold.
Mice were divided into three groups: a blank control group, an aspirin (ASA) group, and a drug group. In blank control group, the mice were given normal saline, deionized water or deionized water containing ≤5% DMSO at the same volume as that in the drug group. In ASA group, the mice were given the known analgesic drug ASA as the positive control for tested compounds. In drug group, the mice were given compounds for testing accordingly. Due attention was paid to observe whether the pain threshold rose, the period during which the rise was maintained and the magnitude of the rise, after the injection of a tested compound solution.

[2] = test system: Kunming mice with CFA-induced inflammation; test: Effective concentration and plateau experiment of vanadium compounds, tail vein injection, mouse pain model; format: in vivo
[3] = test system: mice that suffered from pain due to induced inflammation; details: intrathecal injection, inflammatory pain; cited from earlier work
[4] = test system: Kunming mice with CFA-induced inflammation; test: Von Frey test (50% paw withdrawal threshold) in CFA-induced inflammatory pain mouse model; format: in vivo; details: Example 10; G1 injected through the tail vein 0.49 mg/kg (atomic mass of vanadium); ASA group as control
[5] = Plateau experiment, dose (vanadium) A5/G3 0.25, A1/G1/H1 0.49, A4/G2/H2 0.97, H3 1.9 mg/kg, 6 samples, listed as G1
[6] = Example 3, intraperitoneal injection, A1 0.97 mg/kg (atomic mass of vanadium), S about 250 mg/kg
[7] = Example 5, intraperitoneal injection, C 1.9 mg/kg (atomic mass of vanadium), S about 250 mg/kg
[8] = Example 6, intraperitoneal injection, D 1.9 mg/kg, S about 250 mg/kg
[9] = Example 7, intraperitoneal injection, B 0.97 mg/kg (atomic mass of vanadium), S about 250 mg/kg
[10] = Example 8, intraperitoneal injection, E 0.97 mg/kg (atomic mass of vanadium), ASA about 250 mg/kg
[11] = Example 9, intraperitoneal injection, F 0.97 mg/kg (atomic mass of vanadium), ASA about 250 mg/kg
[12] = Example 11 (BEOV), intraperitoneal injection, I about 0.97 mg/kg (atomic mass of vanadium)
[13] = Example 11 (BMOV), intraperitoneal injection, H1 about 0.97 mg/kg (atomic mass of vanadium)
[14] = Example 12, intraperitoneal injection, J about 0.97 mg/kg (atomic mass of vanadium)
[15] = Example 13, intraperitoneal injection, K about 0.97 mg/kg (atomic mass of vanadium)
[16] = Example 14, intraperitoneal injection, L about 0.97 mg/kg (atomic mass of vanadium)
[17] = Example 15, intraperitoneal injection, M about 0.97 mg/kg (atomic mass of vanadium)
[18] = Example 16, intraperitoneal injection, N about 0.97 mg/kg (atomic mass of vanadium)
[19] = Example 17, intraperitoneal injection, O about 0.97 mg/kg (atomic mass of vanadium)
[20] = Example 18, intraperitoneal injection, P about 0.97 mg/kg (atomic mass of vanadium)
[21] = Example 19, intraperitoneal injection, Q about 0.97 mg/kg (atomic mass of vanadium)
[22] = Example 20, intraperitoneal injection, R about 0.97 mg/kg (atomic mass of vanadium)

**Q.** With `[Na+].[Na+].[Na+].[O]=[V]([O-])([O-])[O-]` [Solution A, Sodium orthovanadate] as the molecule, how does the Analgesic effect ([1]; mouse, in vivo, ip) read?
**A.** The Analgesic effect was “have an analgesic effect”.

**Q.** And the “Effective duration compared with aspirin (ASA)” value ([1]; mouse, in vivo, ip)?
**A.** The value was “significantly longer duration of action than that of ASA; also recorded: longer than that of aspirin”.

**Q.** And the Minimum effective dose ([2]; mice)?
**A.** Its Minimum effective dose is “about 1.0×10^−3 mg/kg”.

**Q.** And the “Blood concentration in mice equivalent to the plateau dose” value ([2]; plateau dose 0.49 mg/kg)?
**A.** The value was 140 µM.

**Q.** What about the Analgesic effect [3] of the same molecule?
**A.** The Analgesic effect was “found the analgesic effect”.

**Q.** Which results are given for `O=S(=O)([O-])[O-].[O]=[V+2]` [Solution G1, Vanadyl sulfate]?
**A.** Duration [2, 5]: >60 min; Maximum analgesic intensity (mean) [2, 5]: ~0.49 g; Duration [4]: >60 min; Onset time [4]: 0 to 15 after injection min

**Q.** With `CC(=O)Oc1ccccc1C(=O)O` [Solution S, acetylsalicylic acid, reference compound] as the molecule, how does the Duration [1, 6] read?
**A.** Its Duration is <45 min.

**Q.** And the Onset time [1, 6]?
**A.** The Onset time was 15 to 30 after injection min.

**Q.** And the Duration [1, 7]?
**A.** Its Duration is <45 min.

**Q.** What about the Onset time [1, 7] of the same molecule?
**A.** The Onset time was 15 to 30 after injection min.

**Q.** And the Duration ([1]; Example 5, intraperitoneal injection, C 1.9 mg/kg (atomic mass of vanadium), S about 250 mg/kg, listed as ASA)?
**A.** Its Duration is < 45 min.

**Q.** What about the Duration [1, 8] of the same molecule?
**A.** Its Duration is <45 min.

**Q.** What about the Onset time [1, 8] of the same molecule?
**A.** Its Onset time is 15 to 30 after injection min.

**Q.** What about the Duration ([1]; Example 6, intraperitoneal injection, D 1.9 mg/kg, S about 250 mg/kg, listed as ASA) of the same molecule?
**A.** Its Duration is < 45 min.

**Q.** What about the Duration [1, 9] of the same molecule?
**A.** The Duration was <45 min.

**Q.** What about the Onset time [1, 9] of the same molecule?
**A.** The Onset time was 15 to 30 after injection min.

**Q.** And the Duration ([1]; Example 7, intraperitoneal injection, B 0.97 mg/kg (atomic mass of vanadium), S about 250 mg/kg, listed as ASA)?
**A.** The Duration was < 45 min.

**Q.** And the Duration [1, 10]?
**A.** The Duration was <45 min.

**Q.** What about the Onset time [1, 10] of the same molecule?
**A.** Its Onset time is 15 to 30 after injection min.

**Q.** What about the Duration ([1]; Example 8, intraperitoneal injection, E 0.97 mg/kg (atomic mass of vanadium), ASA about 250 mg/kg, listed as ASA) of the same molecule?
**A.** The Duration was < 45 min.

**Q.** And the Duration [1, 11]?
**A.** The Duration was <45 min.

**Q.** What about the Onset time [1, 11] of the same molecule?
**A.** The Onset time was 15 to 30 after injection min.

**Q.** What about the Duration ([1]; Example 9, intraperitoneal injection, F 0.97 mg/kg (atomic mass of vanadium), ASA about 250 mg/kg, listed as ASA) of the same molecule?
**A.** Its Duration is < 45 min.

**Q.** And the Duration [1, 12]?
**A.** Its Duration is <45 min.

**Q.** What about the Onset time [1, 12] of the same molecule?
**A.** Its Onset time is 15 to 30 after injection min.

**Q.** What about the Duration [1, 13] of the same molecule?
**A.** Its Duration is <45 min.

**Q.** What about the Onset time [1, 13] of the same molecule?
**A.** Its Onset time is 0 to 15 after injection min.

**Q.** What about the Duration [1, 14] of the same molecule?
**A.** Its Duration is <45 min.

**Q.** And the Onset time [1, 14]?
**A.** The Onset time was 15 to 30 after injection min.

**Q.** And the Duration [1, 15]?
**A.** The Duration was <45 min.

**Q.** And the Onset time [1, 15]?
**A.** The Onset time was 0 to 15 after injection min.

**Q.** What about the Duration [1, 16] of the same molecule?
**A.** Its Duration is <45 min.

**Q.** And the Onset time [1, 16]?
**A.** Its Onset time is 15 to 30 after injection min.

**Q.** What about the Duration [1, 17] of the same molecule?
**A.** Its Duration is <45 min.

**Q.** And the Onset time [1, 17]?
**A.** Its Onset time is 15 to 30 after injection min.

**Q.** What about the Duration [1, 18] of the same molecule?
**A.** Its Duration is <45 min.

**Q.** And the Onset time [1, 18]?
**A.** The Onset time was 15 to 30 after injection min.

**Q.** What about the Duration [1, 19] of the same molecule?
**A.** Its Duration is <45 min.

**Q.** And the Onset time [1, 19]?
**A.** Its Onset time is 15 to 30 after injection min.

**Q.** What about the Duration [1, 20] of the same molecule?
**A.** Its Duration is <45 min.

**Q.** And the Onset time [1, 20]?
**A.** The Onset time was 15 to 30 after injection min.

**Q.** And the Duration [1, 21]?
**A.** Its Duration is <45 min.

**Q.** What about the Onset time [1, 21] of the same molecule?
**A.** Its Onset time is 15 to 30 after injection min.

**Q.** And the Duration [1, 22]?
**A.** The Duration was <45 min.

**Q.** What about the Onset time [1, 22] of the same molecule?
**A.** The Onset time was 15 to 30 after injection min.

**Q.** And the “Time after injection at which the pain threshold returned to the baseline value” ([1]; intraperitoneal injection, doses as in Examples 3-9)?
**A.** The value was “about 60 minutes”.

**Q.** And the Duration [4]?
**A.** Its Duration is <45 min.

**Q.** And the Onset time [4]?
**A.** Its Onset time is 0 to 15 after injection min.
